In the NIST ThermoML archive (doi:10.1021/je900460m):
Numbers after ± are expanded uncertainties.

Which results are given for `CCCCCCn1cc[n+](C)c1.N#C[S-]` [1-hexyl-3-methylimidazolium thiocyanate]?
mass density (298.15 K, 101.33 kPa, Liquid, Pycnometric method): 1056.92 ± 11 kg/m3; viscosity (298.15 K, Liquid, Capillary tube (Ostwald / Ubbelohde) method): 93.62 ± 3.1 mPa·s; Glass transition temperature (Glass, visual observation): -83.2 ± 3 °C
